Here are results for 83 molecules from US20210220408A1, “ARYL HYDROCARBON RECEPTOR ANTAGONISTS AND METHODS OF USE” (Magenta Therapeutics Inc., priority 2018, published 2021).

A word on the IC50: it is the concentration needed to halve the response being measured. Higher therefore signals a need for much substance.

The test addresses T1, aryl hydrocarbon receptor (AHR) (Homo sapiens, UniProt P35869).
T1 sequence (P35869 11-848): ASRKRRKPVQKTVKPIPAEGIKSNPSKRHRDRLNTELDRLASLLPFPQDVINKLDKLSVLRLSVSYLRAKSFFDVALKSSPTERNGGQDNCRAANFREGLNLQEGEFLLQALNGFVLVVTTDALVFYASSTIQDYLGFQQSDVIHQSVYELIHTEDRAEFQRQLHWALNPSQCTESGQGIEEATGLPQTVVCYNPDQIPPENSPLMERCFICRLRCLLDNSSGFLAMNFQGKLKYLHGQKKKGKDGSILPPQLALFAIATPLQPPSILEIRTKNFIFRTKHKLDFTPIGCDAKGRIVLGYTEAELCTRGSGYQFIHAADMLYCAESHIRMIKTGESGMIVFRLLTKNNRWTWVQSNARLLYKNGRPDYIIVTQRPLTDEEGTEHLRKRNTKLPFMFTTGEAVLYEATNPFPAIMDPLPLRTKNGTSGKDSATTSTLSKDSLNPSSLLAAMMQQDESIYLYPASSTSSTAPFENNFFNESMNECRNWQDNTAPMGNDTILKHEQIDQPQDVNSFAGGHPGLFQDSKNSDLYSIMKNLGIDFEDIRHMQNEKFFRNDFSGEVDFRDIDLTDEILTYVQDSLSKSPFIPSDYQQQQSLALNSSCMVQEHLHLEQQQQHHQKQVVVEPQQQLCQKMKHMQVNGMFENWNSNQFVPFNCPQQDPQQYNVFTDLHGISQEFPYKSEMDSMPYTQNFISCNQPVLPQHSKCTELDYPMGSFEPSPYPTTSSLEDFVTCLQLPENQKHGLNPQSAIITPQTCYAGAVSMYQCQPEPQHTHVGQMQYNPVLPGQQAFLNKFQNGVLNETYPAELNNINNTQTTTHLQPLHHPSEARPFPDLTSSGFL
In words: DRE-Luciferase reporter high-throughput screen (AHR antagonist, VAF347-activated). Background: Reporter assays use an easily measured gene product as a stand-in for the process of interest.
Source text: HepG2 hepatocellular carcinoma cells were transfected with a dioxin-response element (DRE) Firefly luciferase reporter construct. Luciferase transcription was activated with the aryl hydrocarbon receptor (AHR) agonist, VAF347. Addition of an AHR antagonist results in inhibition of the luciferase transcription and a loss of signal in the assay.
HepG2, a hepatocellular carcinoma cell line, was transfected with the dioxin-response element Firefly luciferase reporter construct using the TransIT-transfection system. Prior to transfection, HepG2 cells (Sigma) were cultured at 90% confluency in Eagle's Modified Essential Medium (Sigma)+2 mM Glutamine (Sigma), +1^% Non Essential Amino Acids (Sigma)+10% Fetal Bovine Serum (Hyclone) and harvested and counted (Biorad TC20 cell counter). OptilMEM serum-free media and TransIT (Mirus) were mixed for transfection in 150 mm dishes by adding 240 μL Transit to 3.0 mL OptiMEM, vortexing briefly to mix, and incubating at room temperature for 20 minutes. The DNA mixture was prepared by adding 80 μg plasmid (pGudLuc6.1 plasmid, Garrison et al., (1996) Fundam. Appl. Toxicol., 30, 194-203), inverting to mix, and incubating at room temperature for 30 minutes. 30×10^6 HepG2 cells were seeded in 30 mL media and 3.3 mL of the DNA, OptiMEM, and TransIT mixture was added dropwise to the plate. The plate was mixed by rocking and incubated at 37° C./5% CO2 overnight. The next day, cells were harvested by aspirating media, washing once with sterile phosphate buffered saline (PBS, Gibco), trypsinzing with 0.05% Trypsin (Corning) and harvesting cells with culture medium, and freezing with Cell Freezing Media (Gibco) at 5 50×10^6 cells/vial in 1 mL/vial.
Transiently-transfected frozen HepG2 cells with DRE-Luciferase, were thawed in a 37° C. water bath and resuspended in complete media. 4 μL cells at 15,000 cells per well was transferred into the wells of a 1536-well Alphaplate assay plate (PerkinElmer) using TEMPEST liquid dispenser. The plate was centrifuged at 1000 rpm for 1 minute. 30 nL of the controls (1 μM (S)-2-(6-((2-(1H-indol-3-yl)ethyl)amino)-2-(5-fluoropyridin-3-yl)-9H-purin-9-yl)propan-1-ol or 100% DMSO) were transferred to the assay plate using the Pin Tool on BRAVO. 1 μL of VAF347 (15 nM final concentration) in complete media was added to the wells using TEMPEST. The plate was centrifuged at 1000 rpm for 1 minute and incubated at 37° C./5% CO2 overnight. After incubation, the plate was removed from the incubator and brought to room temperature. 2 μL of room temperature Steady-Glo luciferase detection reagent (Promega) was added to the wells with TEMPEST. The plate was centrifuged at 2000 rpm for 1 minute, sealed with clear plastic seal and kept at room temperature for 15 minutes prior to measuring luminescence on ENVISION.
Approximately 166,000 compounds were screened in 132 1536-well plates in the luciferase reporter gene assay at a final concentration of 12 μM. […] Each compound was tested at 0.1 μM, 1.0 μM, and 10 μM in the DRE luciferase assay and Cell Titer Glo cytotoxicity assay (Promega). […] 512 compounds were selected for 10-point dose-response in the AHR luciferase reporter assay and the Cell Titer Glo cytotoxicity assay.
`Cc1ccc2nc3c(c(N)c2c1)CCN3c1ccccc1` [124B]: the IC50 fell in the range of 0.5 to 1 µM.
Under `Cc1nc2nc(SCCOc3ccc(C#N)cc3)nn2c(C)c1C` [125A] stands 1 to 2 µM; under `Cc1cccn2c(=O)c3cc(C(=O)NCc4ccccc4Cl)sc3nc12` [125B], 0.2 to 0.5 µM; under `COC(=O)C1=C(C)Nc2nc(-c3ccccc3)nn2C1c1cccnc1` (centres unmarked) [126A], 1 to 2 µM.
`COc1ccc(C2=Nn3c(nc4ccsc4c3=O)SC2)cc1` [126B] came in with a half-maximal inhibitory concentration (IC50) of 1 to 2 µM.
As to `N#Cc1ccccc1OCc1cc(-c2cccs2)on1` [127A], the concentration for half-maximal inhibition (IC50) lay within 1 to 2 µM.
Under `Cn1c(CCC(=O)OCC(=O)N2c3ccccc3CCc3ccccc32)nc2ccccc2c1=O` [127B] stands > 2 µM; under `c1ccc(-c2cc(-c3cn4cccnc4n3)on2)cc1` [128A], 1 to 2 µM.
The value for `Cc1c(COc2ccccc2C#N)noc1-c1ccc(F)cc1` [129A] was 1 to 2 µM; that for `c1ccc(-c2ccc(OCc3ccno3)cc2)cc1` [130A] was 1 to 2 µM; that for `Cc1nccc(-c2cc(-c3ccc(Cl)cc3Cl)no2)n1` [131A] was 1 to 2 µM.
In turn, `Clc1ccc2nnn(OCc3coc(-c4cccs4)n3)c2c1` [132A] gave a concentration for half-maximal inhibition (IC50) of 1 to 2 µM.
The value for `c1ccc(-c2nc(CSc3nncn3-c3ccccc3)co2)cc1` [133A] was 1 to 2 µM; that for `Cc1ccc(-c2nc(Cn3cnc(C#N)n3)co2)c(C)c1` [134A] was 1 to 2 µM; that for `Cc1ccc(-c2nc(CSc3nccn3-c3ccccc3)co2)cc1` [136A] was > 2 µM.
The value for `COc1ccc(-c2noc(-c3cscn3)n2)cn1` [137A] was > 2 µM; that for `Cc1nn(C)cc1-c1nnc(-c2cccc(C(F)(F)F)c2)o1` [138A] was 1 to 2 µM; that for `O=C(COc1ccccc1-c1nnc(-c2ccccc2)o1)NCc1ccccn1` [139A] was 1 to 2 µM.
The molecule `CNC(=O)c1ccc(CN(C)C(=O)c2ccc(-c3nnc(-c4ccccc4C)o3)cc2)cc1` [140A] yielded a half-maximal inhibitory concentration (IC50) of 1 to 2 µM.
`Cc1ccccc1OCCNC(=O)c1cc(Cl)ccc1F` [141A] yielded an IC50 of 1 to 2 µM.
The value for `N#Cc1ccccc1OCc1ccc(C(N)=O)cc1` [142A] was > 2 µM; that for `COc1ccc(CC(=O)Nc2ccc(-c3csc(C)n3)cc2)cc1` [143A] was > 2 µM.
For the molecule `CCCN(C(=O)C1CC1)c1nnc(-c2ccc(Cl)cc2)s1` [144A], the IC50 lay in the range of 1 to 2 µM.
In the case of `CN(c1nnc(NC(=O)Nc2ccccc2C(F)(F)F)s1)C1CCCCC1` [145A], the IC50 lay within 1 to 2 µM.
Under `COC(=O)c1sc(-c2ccc(CC(C)C)cc2)cc1N` [146A] stands 1 to 2 µM.
As for `Cc1ccc(NC(=O)CN(C)C(C)c2cccs2)c(F)c1` (centres unmarked) [147A], the IC50 is > 2 µM.
As for `O=C(c1csc(-c2ccc(Cl)cc2)c1)N1CCCCC1` [148A], the concentration for half-maximal inhibition (IC50) lay in the range of 1 to 2 µM.
Under `Fc1ccc(-c2ccc(-c3nnc4n3CCCCC4)s2)cc1` [149A] stands > 2 µM.
`N#Cc1c(-c2ccc(Br)cc2)csc1N1CCCCC1` [150A]: the 50% inhibitory concentration (IC50) is > 2 µM.
With `CN(C)c1oc(-c2ccc(COc3ccccc3)o2)nc1C#N` [151A], the IC50 lay in the range of 1 to 2 µM.
Under `COc1ccc(N2CC(c3ccc(F)cc3)=CC2=O)cc1` [152A] stands 1 to 2 µM; under `C/C(=N\CCc1ccccc1)c1c(C(F)(F)F)[nH]n(-c2nc3ccccc3s2)c1=O` [153A], > 2 µM.
The value for `N#Cc1cc(NCCOCC(F)(F)F)nc2ccc([N+](=O)[O-])cc12` [154A] was > 2 µM; that for `Cc1ccc(-c2cc(C(=O)NCc3cccnc3)c3cc(Br)ccc3n2)cc1` [155A] was 1 to 2 µM.
In the case of `NC(=O)c1cc(-c2ccc(Cl)s2)nc2ccccc12` [156A], the IC50 lay in the range of 1 to 2 µM.
`COc1ccc(Nc2ccc3ccccc3n2)cc1Cl` [157A]: the IC50 was in the range of 1 to 2 µM.
The value for `Cc1cc(C)c2cc(C#N)c(Oc3cccnc3)nc2c1` [158A] was 1 to 2 µM; that for `Cc1nnc(Oc2ccc(Cl)cc2Cl)c2ccccc12` [159A] was 1 to 2 µM; that for `Cc1ccc(NC(=O)CSc2nnc(C)c3ccccc23)cc1` [160A] was 1 to 2 µM.
Under `COc1nc2ccccc2nc1CCC(=O)NC1CCCCCC1` [161A] stands > 2 µM; under `CCCc1c(C)nc(Nc2nc(C)c3cc(C)cc(C)c3n2)[nH]c1=O` [163A], 1 to 2 µM.
The value for `Cc1ccc(S(=O)(=O)N=C(N)Nc2nc(C)c3cc(C)ccc3n2)cc1` [164A] was 1 to 2 µM; that for `CC(NC(=O)c1c(N)n(C)c2ccccc2c1=O)c1ccccc1` (centres unmarked) [165A] was > 2 µM; that for `CSc1nc(-c2ccccc2)nc2[nH]c(-c3ccccc3)cc(=O)c12` [166A] was 1 to 2 µM.
Consider `O=c1cc(NCc2cccc(C(F)(F)F)c2)nc2ccc(Cl)cn12` [167A], for which the concentration for half-maximal inhibition (IC50) is > 2 µM.
`O=c1[nH]c2ccccc2nc1NCc1ccc(F)cc1` [168A]: the IC50 is 1 to 2 µM.
Regarding `Cc1ccc(-c2cc(-c3ccccc3)c3c(N)c(S(C)(=O)=O)sc3n2)cc1` [169A], the concentration for half-maximal inhibition (IC50) fell in the range of 1 to 2 µM.
With `CCN(CC)c1ncnc2sc(-c3ccccc3)cc12` [170A], the IC50 lay within 1 to 2 µM.
The value for `COc1ccc(C(=O)Nc2nc3c(s2)CCCC3)cc1` [171A] was 1 to 2 µM; that for `Clc1ccccc1CNc1ccc(-c2nc3ncccc3o2)cc1` [172A] was 1 to 2 µM.
Consider `CNC(=O)N(C)C(=O)c1cnc2onc(-c3ccc(C)cc3)c2c1` [173A], for which the 50% inhibitory concentration (IC50) was 1 to 2 µM.
Consider `N#Cc1ccc(OCc2ccc3nonc3c2)cc1` [174A], for which the IC50 was > 2 µM.
As to `C=C(Cc1nnc(C(C)C)s1)c1cn(CCOC)cc2c(=O)n(-c3ccccc3)nc1-2` [175A], the IC50 is > 2 µM.
Under `CC(C)Nc1ccc(-n2nc3ccccc3[n+]2[O-])cc1` [176A] stands 1 to 2 µM; under `COc1ccc(Nc2nn(-c3ccccc3)c3c2C(=O)CCC3)cc1` [177A], 1 to 2 µM; under `C#CCn1cnc2c(nnn2-c2ccc(C)c(Cl)c2)c1=O` [178A], > 2 µM.
The value for `Cc1c(C(=O)OC2CCCC2)[nH]c2c1C(=O)CCC2` [179A] was > 2 µM; that for `CCCNC(=O)c1cc2sc(Cl)cc2n1C` [180A] was > 2 µM.
Under `Cc1ccc(N2CC[C@@H]3[C@@H]2CCN3c2ncc(F)cn2)nn1` [181A] stands 1 to 2 µM.
`CCN1C(=O)C[C@@H]2[C@@H]1CCN2S(=O)(=O)Cc1ccc(C)cc1` [182A] had an IC50 of 1 to 2 µM.
Take `CC(C)CCNC(=O)c1[nH]nc2c1COc1ccccc1-2` [183A]: the IC50 was > 2 µM.
Regarding `CCCNC(=O)c1cc2cc3ccc(C)cc3nc2o1` [184A], the concentration for half-maximal inhibition (IC50) fell in the range of 1 to 2 µM.
The value for `COc1cccc2c1cc1c(O)nnc(C)n12` [185A] was > 2 µM.
On to `O=C(c1cc2sc3ccccc3c2s1)N1CCCCC1` [186A], for which the concentration for half-maximal inhibition (IC50) was > 2 µM.
Under `Cc1cc2ccccc2n2c(SCC(=O)Nc3ccccc3F)nnc12` [187A] stands > 2 µM; under `CN1CC(c2ccccc2)=Cc2c1ccc1nonc21` [188A], 1 to 2 µM; under `COc1ccc2cc(C)c3nn(CCNC(=O)c4sc(C)nc4C)c(=O)n3c2c1` [191A], > 2 µM.
The value for `N#Cc1c(NC(=O)Nc2ccc(Cl)c(Cl)c2)sc2c1C1CCN2CC1` [192A] was 1 to 2 µM; that for `O=C(NCCn1nc(-c2cccs2)ccc1=O)c1cccs1` [194A] was > 2 µM; that for `Cn1c(N)c(C(=O)CSc2ccc(F)cc2)c(=O)n(C)c1=O` [195A] was 1 to 2 µM.
Under `CCOC(=O)c1ccc(Nc2nc(=O)c3cccnc3s2)cc1` [196A] stands > 2 µM.
For `CCc1cc2c(=O)c(-c3nc(C)cs3)coc2c(CN2CCCC(c3cccnc3)C2)c1O` (centres unmarked) [197A], the IC50 was 1 to 2 µM.
The value for `Cc1ccc(NC(=O)c2ccc(OC(F)(F)F)cc2)nc1` [compound 10] was 0.5 to 1 µM.
Regarding `Cc1cccc(-n2ccc(=O)c(C(=O)Nc3ccccc3F)n2)c1` [compound 31], the IC50 lay within 0.2 to 0.5 µM.
As to `COCCN1Cc2cccc(C(=O)Nc3ccc(C)c(F)c3)c2C1=O` [compound 32], the IC50 lay in the range of 0.2 to 0.5 µM.
Consider `COC(=O)c1cccc(NC(=O)c2nsc3ccccc23)c1` [compound 33], for which the IC50 was 0.2 to 0.5 µM.
Under `COc1cc(OC)c(NC(=O)c2[nH]nc3c2CSc2ccccc2-3)cc1Cl` [compound 34] stands 0.2 to 0.5 µM; under `CCCn1ncc(C(=O)Nc2ccc(N3CCCCC3)c(F)c2)c1C` [compound 35], 0.5 to 1 µM.
The value for `Cn1nc(C2CC2)cc1C(=O)Nc1ccc(I)cc1` [compound 36] was 0.5 to 1 µM; that for `Cc1csc(Nc2nc(N)c(C(=O)Nc3cc(Cl)ccc3F)o2)n1` [compound 37] was 0.5 to 1 µM; that for `CCOC(=O)c1sc(NC(=O)c2ccc3ncsc3c2)cc1C` [compound 39] was 0.5 to 1 µM.
For the molecule `CCOC(=O)c1sc(NC(=O)c2cn3ccccc3n2)cc1C` [compound 40], the IC50 is < 0.2 µM.
The value for `CCOC(=O)c1sc(NC(=O)c2sccc2C)cc1C` [compound 44] was 0.5 to 1 µM.
